US8404266B2, “Method for stabilization of S-nitrosoglutathione and composition prepared by the same” (Pharmagenix AG, priority 2008, dated 2013)

Assay: GSNO decomposition at different pH values, monitored spectrophotometrically at 540 nm (FIG. 3)
Type: physicochemical
Text: The GSNO is a brown colored compound having a characteristic absorption spectrum. One of its two characteristic peaks is in the UV range, while the maximum of the other is around 540 nm. During decomposition the absorption spectrum of GSNO goes through a change. The change in the height of the peak at 540 nm is linearly proportional with the concentration of GSNO. Wavelengths at far IR range can be used as background absorption, since no change occurs in them during the decomposition process of GSNO. These features allow monitoring the concentration of GSNO spectrophotometrically. […] On the X-axis the time (given in days) and on the Y-axis absorbency values are given. Symbols Indicate the Following pH Values: • *: pH=0.3; • ♦: pH=4.26; • □: pH=7.4; • ▪: pH=8.6; • ◯: pH=12.6. The decomposition of GSNO was monitored spectrophotometrically, since the absorption spectrum of GSNO undergoes changes and the size change of the peak at 540 nm is linearly proportional with the concentration of GSNO. Wavelengths at far IR range were used as background absorption, since no change occurs in them during the decomposition of GSNO.

## N[C@@H](CCC(=O)N[C@@H](CSN=O)C(=O)NCC(=O)O)C(=O)O [GSNO, S-nitrosoglutathione]
More alkaline conditions, curve of pH 12
  GSNO metabolism (decomposition): gets accelerated
pH about 8.6, compared with conventionally applied pH 4.26
  stability: very good stability
pH range
  pH range of plateau-like maximum of stability: 7.5 to 10
Under alkaline conditions
  metabolic rate of GSNO: significantly be decreased
